The record followed here is ChEMBL document CHEMBL4680375 (ACS Med Chem Lett, 2021).

SMILES strings stand for the structures. Active and inactive are the calls of the source. The rule behind the calls is not given here.

The term IC50 denotes the concentration at which inhibition is half-maximal. The term Ki denotes the equilibrium dissociation constant of an inhibitor or competing ligand from its target.

In test [1] the target is T1, NAD-dependent protein deacetylase sirtuin-3, mitochondrial (Homo sapiens, UniProt Q9NTG7).
T1 sequence (Q9NTG7 whole entry): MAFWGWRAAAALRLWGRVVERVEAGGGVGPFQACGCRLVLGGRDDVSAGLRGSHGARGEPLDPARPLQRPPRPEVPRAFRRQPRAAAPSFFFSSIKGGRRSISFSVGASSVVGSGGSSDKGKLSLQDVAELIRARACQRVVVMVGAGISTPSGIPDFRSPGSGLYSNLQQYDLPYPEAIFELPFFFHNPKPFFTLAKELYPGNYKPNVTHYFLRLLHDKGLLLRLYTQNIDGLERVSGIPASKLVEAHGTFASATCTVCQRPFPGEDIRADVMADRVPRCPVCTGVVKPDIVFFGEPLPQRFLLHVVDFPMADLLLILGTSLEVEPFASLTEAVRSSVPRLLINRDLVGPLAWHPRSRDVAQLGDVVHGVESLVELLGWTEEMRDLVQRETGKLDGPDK
In words: Inhibition of SIRT3 (unknown origin).

Test [2] deals with T2, NAD-dependent protein deacetylase sirtuin-1 (Homo sapiens) (UniProt Q96EB6).
T2 sequence (whole entry): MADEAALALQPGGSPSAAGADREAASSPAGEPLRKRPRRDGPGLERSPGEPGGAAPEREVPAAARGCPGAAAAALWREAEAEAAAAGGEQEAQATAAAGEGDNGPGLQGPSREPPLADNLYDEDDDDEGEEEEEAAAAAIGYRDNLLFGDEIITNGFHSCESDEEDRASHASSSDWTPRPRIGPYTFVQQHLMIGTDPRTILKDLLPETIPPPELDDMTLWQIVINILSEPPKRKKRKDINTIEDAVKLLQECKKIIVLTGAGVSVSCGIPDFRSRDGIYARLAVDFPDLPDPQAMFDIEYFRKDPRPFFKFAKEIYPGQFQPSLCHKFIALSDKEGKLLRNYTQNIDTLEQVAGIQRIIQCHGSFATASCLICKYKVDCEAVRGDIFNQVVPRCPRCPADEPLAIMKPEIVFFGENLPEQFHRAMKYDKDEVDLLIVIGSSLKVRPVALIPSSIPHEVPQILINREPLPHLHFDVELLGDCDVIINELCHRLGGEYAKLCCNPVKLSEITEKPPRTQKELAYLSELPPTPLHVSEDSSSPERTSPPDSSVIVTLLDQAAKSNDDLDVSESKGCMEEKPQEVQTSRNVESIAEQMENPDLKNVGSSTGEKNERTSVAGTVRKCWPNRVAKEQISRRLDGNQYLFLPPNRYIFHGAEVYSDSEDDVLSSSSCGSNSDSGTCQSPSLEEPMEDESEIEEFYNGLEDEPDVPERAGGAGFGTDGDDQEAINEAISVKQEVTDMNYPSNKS
In words: Inhibition of SIRT1 in human SH-SY5Y cells assessed as increase in acetylated p53 level at 10 uM measured after 72 hrs in presence of ATRA by Western blot analysis. The test is classed as cell-based. On the technique in general: In western blotting, separated proteins are transferred to a membrane and probed.

The target in test [3] is NAD-dependent protein deacetylase sirtuin-1 (Homo sapiens, UniProt Q96EB6, F414A). In words: Inhibition of N-terminal hexa-His-tagged human SIRT1 F414A mutant (156 to 664 residues) expressed in Escherichia coli BL21 (DE3) assessed as dissociation equilibrium constant using Abz-GVLKacAYNO2GY-NH2 as substrate in presence of varying level of NAD+ by Lineweaver-burk plot analysis.

Test [4] addresses T3, NAD-dependent protein deacetylase sirtuin-1 (Homo sapiens, UniProt Q96EB6).
T3 sequence (Q96EB6 whole entry): T2 sequence (whole entry)
In words: Inhibition of N-terminal hexa-His-tagged human SIRT1 (156 to 664 residues) expressed in Escherichia coli BL21 (DE3) assessed as deacetylation of Abz-labeled acetyl peptide using Abz-GVLKacAYNO2GY-NH2 peptide as substrate incubated for 30 mins in presence of NAD+ by fluorescence microplate reader assay. The following applies: read-out: IC50.

Test [5] addresses NAD-dependent protein deacetylase sirtuin-1 (Homo sapiens, UniProt Q96EB6, F273L). Nature of the test: Inhibition of N-terminal hexa-His-tagged human SIRT1 F273L mutant (156 to 664 residues) expressed in Escherichia coli BL21 (DE3) assessed as dissociation equilibrium constant using Abz-GVLKacAYNO2GY-NH2 as substrate in presence of varying level of NAD+ by Lineweaver-burk plot analysis.

Test [6] concerns the target T2, NAD-dependent protein deacetylase sirtuin-1 (Homo sapiens). Nature of the test: Non-competitive inhibition of N-terminal hexa-His-tagged human SIRT1 (156 to 664 residues) expressed in Escherichia coli BL21 (DE3) assessed as decrease in initial velocity V0 at 0.47 to 1.98 uM using Abz-GVLKacAYNO2GY-NH2 as substrate in presence of varying level of NAD+ by Lineweaver-burk plot analysis. The following applies: dose 0.47-1.98 µM.

Test [7] in a line: Inhibition of N-terminal hexa-His-tagged human SIRT1 D348A mutant (156 to 664 residues) expressed in Escherichia coli BL21 (DE3) assessed as dissociation equilibrium constant using Abz-GVLKacAYNO2GY-NH2 as substrate in presence of varying level of NAD+ by Lineweaver-burk plot analysis.
The target of test [8] is T3, NAD-dependent protein deacetylase sirtuin-1. Nature of the test: Inhibition of wild type N-terminal hexa-His-tagged human SIRT1 (156 to 664 residues) expressed in Escherichia coli BL21 (DE3) assessed as dissociation equilibrium constant using Abz-GVLKacAYNO2GY-NH2 as substrate in presence of varying level of NAD+ by Lineweaver-burk plot analysis.
For test [9], the target named is NAD-dependent protein deacylase sirtuin-5, mitochondrial (Homo sapiens, UniProt Q9NXA8). Nature of the test: Inhibition of N-terminal 8His-tagged human SIRT5 (34 to 302 residues) expressed in Escherichia coli Rosetta2 (DE3) using Abz-GVLKacAYNO2GY-NH2 peptide as substrate incubated for 30 mins in presence of NAD+ by fluorescence microplate reader assay. The following applies: read-out: IC50.

In test [10] the target is T2, NAD-dependent protein deacetylase sirtuin-1 (Homo sapiens). In words: Non-competitive inhibition of N-terminal hexa-His-tagged human SIRT1 (156 to 664 residues) expressed in Escherichia coli BL21 (DE3) assessed as effect on Km at 0.47 to 1.98 uM using Abz-GVLKacAYNO2GY-NH2 as substrate in presence of varying level of NAD+ by Lineweaver-burk plot analysis. The following applies: dose 0.47-1.98 µM.

Test [11] has as its target NAD-dependent protein deacetylase sirtuin-1 (Homo sapiens, UniProt Q96EB6, I347A). Nature of the test: Inhibition of N-terminal hexa-His-tagged human SIRT1 I347A mutant (156 to 664 residues) expressed in Escherichia coli BL21 (DE3) assessed as dissociation equilibrium constant using Abz-GVLKacAYNO2GY-NH2 as substrate in presence of varying level of NAD+ by Lineweaver-burk plot analysis.

Test [12] concerns the target T2, NAD-dependent protein deacetylase sirtuin-1 (Homo sapiens). In words: Mixed-type inhibition of N-terminal hexa-His-tagged human SIRT1 (156 to 664 residues) expressed in Escherichia coli BL21 (DE3) assessed as decrease in initial velocity V0 at 0.47 to 1.98 uM using varying levels Abz-GVLKacAYNO2GY-NH2 peptide as substrate in presence of NAD+ by Lineweaver-burk plot analysis. The following applies: dose 0.47-1.98 µM.

For test [13], the target named is NAD-dependent protein deacetylase sirtuin-1 (Homo sapiens, UniProt Q96EB6, N346A). In words: Inhibition of N-terminal hexa-His-tagged human SIRT1 N346A mutant (156 to 664 residues) expressed in Escherichia coli BL21 (DE3) assessed as dissociation equilibrium constant using Abz-GVLKacAYNO2GY-NH2 as substrate in presence of varying level of NAD+ by Lineweaver-burk plot analysis.

Test [14] addresses T4, NAD-dependent protein deacetylase sirtuin-2 (Homo sapiens, UniProt Q8IXJ6).
T4 sequence (Q8IXJ6 whole entry): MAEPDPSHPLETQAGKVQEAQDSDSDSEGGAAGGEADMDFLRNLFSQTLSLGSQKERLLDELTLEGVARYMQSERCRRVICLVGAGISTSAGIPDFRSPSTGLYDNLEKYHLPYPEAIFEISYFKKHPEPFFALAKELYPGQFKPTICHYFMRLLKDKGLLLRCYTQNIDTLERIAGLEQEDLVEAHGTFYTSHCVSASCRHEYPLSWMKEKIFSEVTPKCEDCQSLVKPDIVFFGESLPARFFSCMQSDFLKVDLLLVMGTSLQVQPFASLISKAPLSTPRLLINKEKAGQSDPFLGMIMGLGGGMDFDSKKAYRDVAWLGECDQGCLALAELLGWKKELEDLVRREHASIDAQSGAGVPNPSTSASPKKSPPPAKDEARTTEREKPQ
In words: Inhibition of GST-fusion tagged human SIRT2 (34 to 356 residues) expressed in Escherichia coli BL21 (DE3) using Abz-GVLKacAYNO2GY-NH2 peptide as substrate incubated for 30 mins in presence of NAD+ by fluorescence microplate reader assay.

Test [15] addresses T2, NAD-dependent protein deacetylase sirtuin-1 (Homo sapiens). Nature of the test: Mixed-type inhibition of N-terminal hexa-His-tagged human SIRT1 (156 to 664 residues) expressed in Escherichia coli BL21 (DE3) assessed as decrease in Km at 0.47 to 1.98 uM using varying levels Abz-GVLKacAYNO2GY-NH2 peptide as substrate in presence of NAD+ by Lineweaver-burk plot analysis. The following applies: dose 0.47-1.98 µM.

Test [16] has as its target NAD-dependent protein deacylase sirtuin-6 (Homo sapiens, UniProt Q8N6T7). Nature of the test: Inhibition of recombinant N-terminal hexa-His-tagged SIRT6 (3 to 318 residues) (unknown origin) expressed in Escherichia coli BL21 (DE3) using RHKKac-AMC as substrate incubated for 2 hrs in presence of NAD+ by fluorescence microplate reader assay.
The target in test [17] is T3, NAD-dependent protein deacetylase sirtuin-1. Nature of the test: Inhibition of His-tagged SIRT1 (unknown origin) expressed in Escherichia coli codon plus (DE3) using acetylated p53 as substrate.

Sequence of NAD-dependent protein deacetylase sirtuin-1 (Homo sapiens, UniProt Q96EB6, F414A) (Q96EB6 2-747 F414A limits assumed): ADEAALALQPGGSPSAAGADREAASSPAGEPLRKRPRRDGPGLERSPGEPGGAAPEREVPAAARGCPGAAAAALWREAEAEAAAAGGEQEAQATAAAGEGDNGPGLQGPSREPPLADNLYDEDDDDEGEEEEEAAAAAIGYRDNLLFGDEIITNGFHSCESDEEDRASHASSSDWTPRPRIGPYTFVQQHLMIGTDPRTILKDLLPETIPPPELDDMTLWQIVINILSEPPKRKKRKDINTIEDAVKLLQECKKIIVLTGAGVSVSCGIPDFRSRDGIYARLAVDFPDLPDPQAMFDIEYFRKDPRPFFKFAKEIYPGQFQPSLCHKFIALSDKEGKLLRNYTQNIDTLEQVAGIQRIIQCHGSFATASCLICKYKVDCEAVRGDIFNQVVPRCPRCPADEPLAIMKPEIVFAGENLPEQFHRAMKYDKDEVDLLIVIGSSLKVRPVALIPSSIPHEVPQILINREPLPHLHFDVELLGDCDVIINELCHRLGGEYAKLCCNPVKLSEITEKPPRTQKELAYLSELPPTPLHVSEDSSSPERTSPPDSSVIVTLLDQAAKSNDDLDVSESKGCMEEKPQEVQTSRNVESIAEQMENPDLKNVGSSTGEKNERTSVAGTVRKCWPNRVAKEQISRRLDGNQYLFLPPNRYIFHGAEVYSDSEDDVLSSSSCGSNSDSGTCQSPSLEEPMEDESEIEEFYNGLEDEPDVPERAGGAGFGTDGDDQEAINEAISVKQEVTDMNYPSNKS
Sequence of NAD-dependent protein deacylase sirtuin-6 (Q8N6T7 whole entry, the tested form may be a part): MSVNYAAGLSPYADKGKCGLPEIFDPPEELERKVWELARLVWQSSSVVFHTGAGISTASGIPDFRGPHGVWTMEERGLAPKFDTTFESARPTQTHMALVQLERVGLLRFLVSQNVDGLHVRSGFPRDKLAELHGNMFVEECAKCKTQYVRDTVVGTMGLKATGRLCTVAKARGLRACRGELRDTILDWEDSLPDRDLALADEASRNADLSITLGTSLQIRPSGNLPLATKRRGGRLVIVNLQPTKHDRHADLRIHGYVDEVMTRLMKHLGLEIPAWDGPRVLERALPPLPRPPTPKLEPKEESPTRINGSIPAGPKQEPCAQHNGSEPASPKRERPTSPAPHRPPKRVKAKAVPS
Sequence of NAD-dependent protein deacetylase sirtuin-1 (Homo sapiens, UniProt Q96EB6, I347A) (Q96EB6 2-747 I347A limits assumed): as the sequence (Q96EB6 2-747 F414A limits assumed) above, with I346A, A413F counted along it
Sequence of NAD-dependent protein deacylase sirtuin-5, mitochondrial (Q9NXA8 whole entry, the tested form may be a part): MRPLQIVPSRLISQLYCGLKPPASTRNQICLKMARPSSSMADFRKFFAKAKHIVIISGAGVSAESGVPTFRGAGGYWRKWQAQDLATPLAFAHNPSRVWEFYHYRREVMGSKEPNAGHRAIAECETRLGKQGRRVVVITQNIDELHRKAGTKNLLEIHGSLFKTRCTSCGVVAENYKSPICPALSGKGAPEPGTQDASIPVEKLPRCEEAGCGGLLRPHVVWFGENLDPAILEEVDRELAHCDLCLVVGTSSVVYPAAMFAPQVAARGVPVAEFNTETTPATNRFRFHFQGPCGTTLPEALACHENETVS
Sequence of NAD-dependent protein deacetylase sirtuin-1 (Homo sapiens, UniProt Q96EB6, F273L) (Q96EB6 2-747 F273L limits assumed): as the sequence (Q96EB6 2-747 F414A limits assumed) above, with F272L, A413F counted along it
Sequence of NAD-dependent protein deacetylase sirtuin-1 (Homo sapiens, UniProt Q96EB6, N346A) (Q96EB6 2-747 N346A limits assumed): as the sequence (Q96EB6 2-747 F414A limits assumed) above, with N345A, A413F counted along it

`CC1=CCC(C(=O)/N=C2\CC=C(S(=O)(=O)O)c3cc(S(=O)(=O)O)cc(S(=O)(=O)O)c32)=C/C1=N/C(=O)C1=CC=C/C(=N\C(=O)/N=C2\C=CC=C(C(=O)/N=C3/CC(C(=O)/N=C4\CC=C(S(=O)(=O)O)c5cc(S(=O)(=O)O)cc(S(=O)(=O)O)c54)=CC=C3C)C2)C1` came in with an IC50 in test [1] of 22000 nM.
On to `COc1cc(C=C2C(=O)OC(c3ccccc3)OC2=O)cc(Br)c1O` (configuration not stated), for which, in [2], the “increase in acetylated p53 level (qualitative)” value is “Active”. Moreover, the Ki in test [3] stood at 18200 nM; in test [5] it was 650 nM; in test [7] it was 7060 nM; in test [8], 100 nM; in test [11], 710 nM; in test [13] it was 1940 nM. For the same compound, the IC50 in test [4] was 1310 nM; in test [9] it was 19800 nM; in test [14], 54000 nM; in test [16] it was “Not Active”. Further, the inhibition result in [6], in test [10], in test [12] and in [15] was “Active” each time.
Take `CCC(Sc1nnc2c(n1)[nH]c1ccccc12)C(=O)N1c2ccccc2Sc2ccccc21` (configuration not stated): in [17], the IC50 is 100 nM.
